Measured values taken from patent publication US20110092592A1, “DIAGNOSIS AND TREATMENT OF HEPATIC DISORDER” (priority 2008, published 2011).

Experiments:
NASH = settings: 2700 mg/day for 12 months; Non-Patent Literature 3; cited from earlier work
[1] = test system: patients with NASH having liver fibrosis; test: Example 3: EPA-E with dietary restriction and exercise therapy in NASH patients having liver fibrosis, one year; type: in vivo, human; settings: one year after start of treatment
Description: Patients with NASH having liver fibrosis, that is to say, subjects suffering from fibrosis classified to stage 1 or 2 according to the fibrosis staging of Brunt et al. are collected (15 cases). Dietary restriction and exercise therapy are conducted so that the blood OA/SA ratio as monthly measured may be reduced in value from that measured previously, while 900 mg of EPA-E is administered twice a day, so as to do follow-up for one year. To the subjects in whom no change is recognized in OA/SA ratio, 900 mg of EPA-E is administered thrice a day.
The subjects in whom the reduction ratio of the OA/SA ratio in one month after the start of the administration is not lower than 5% are included in group A, while the subjects in whom the reduction ratio of the OA/SA ratio in one month after the start of the administration is lower than […] are included in group B. The reduction rate of the OA/SA ratio in one month is calculated by the equation: reduction rate (%)=[(OA/SA ratio before start of administration)−(OA/SA ratio one month after start of administration)]/OA/SA ratio before start of administration×100.

[2] = test system: subjects affirmatively diagnosed as having NASH; test: Example 1: EPA-E group vs placebo control group in NASH subjects, one year; type: in vivo, human
Description: Subjects affirmatively diagnosed as having NASH are divided into two groups (each comprising 15 cases), namely the EPA-E group and the control group, then the groups are caused to take EPADEL S900 (containing 900 mg of EPA-E) and a placebo, respectively, twice a day. Doses are modified as appropriate to the subjects' conditions. Following the method described in American Journal of Gastroenterology 2001, Vol. 96, pp. 2711-2717 with respect to the criteria for diagnosing subjects, monitoring, histological testing, statistic analysis, and so forth, blood chemistry tests on ALT, AST, and the like are performed and the plasma fatty acid composition is determined over a dosage period of one year, and liver biopsy is conducted at the end of dosage, so as to make histological evaluations.
Of the EPA-E group, 15 cases are sorted into two groups, one (“effective” group) comprising the cases in which the score in accordance with the method of Brunt et al. is changed after the administration of the drug from that before the administration by 1 or 2, and the other (“ineffective” group) comprising the cases in which the score after the administration is not changed from that before the administration, and analysis is conducted on the change in the plasma fatty acid composition as determined over the dosage period of one year. The OA/SA ratio before the administration is not different between the effective group and the ineffective group. […] The reduction rate of the OA/SA ratio in two months is calculated by the equation: reduction rate (%)=[(OA/SA ratio before start of administration)−(OA/SA ratio two months after start of administration)]/OA/SA ratio before start of administration×100.

patients with NASH = test: Example 4: EPA-E in NASH patients grouped by adiponectin gene SNP276 genotype, one year; type: in vivo, human; settings: for NAS scores (Kleiner et al.): 900 mg twice a day, one year
Description: There are three genotypes for the adiponectin gene SNP276, the T/T, G/T and G/G genotypes, and humans with the G/G genotype are said to have a lower blood adiponectin level than those with the T/T genotype.
To a group of patients with NASH having the adiponectin gene SNP276 which is of the G/G genotype and a group of patients with NASH having the adiponectin gene SNP276 which is of the genotype other than the G/G genotype (each group comprising 15 cases), 900 mg of EPA-E is administered twice a day for one year. After the lapse of one year, therapeutic effects are evaluated by the NAS scoring of Kleiner et al. In both of the group of patients with NASH having the G/G genotype and the group of patients with NASH having the genotype other than the G/G genotype, NAS scores are improved owing to the administration of the drug for one year.

[3] = EPADEL S900 (900 mg EPA-E) twice a day, one year, vs before treatment and vs control group
[4] = effective group (Brunt score changed by 1 or 2)
[5] = ineffective group (Brunt score not changed)

## CC/C=C\C/C=C\C/C=C\C/C=C\C/C=C\CCCC(=O)OCC [EPA-E, ethyl icosapentate ester]
NASH
  NASH (AST, ALT, inflammatory cytokines, oxidative stress markers, liver biopsy): amelioration of NASH
[1]; group A (OA/SA reduction in one month not lower than 5%)
  fibrosis, staging of Brunt et al., by liver biopsy: ameliorated from stage 2 to stage 1 or non-fibrotic stage, or again, from stage 1 to non-fibrotic stage
[1]; group B (OA/SA reduction in one month lower than 1%)
  amelioration of fibrosis: slight
[2]; [3]
  mean value of ALT: reduced from those before treatment more markedly in comparison with the control group
  mean value of AST: reduced from those before treatment more markedly in comparison with the control group
[2]; [4]
  TIMP-1: gradually reduced in value
  hyaluronic acid: gradually reduced in value
  type IV collagen: gradually reduced in value
[2]; effective group compared with ineffective group
  reduction rate of the OA/SA ratio in two months: high in the effective group as compared with the ineffective group
[2]; for two months after start of administration, effective and ineffective groups
  plasma OA/SA ratio: tends to be reduced in both groups
[2]; from the lapse of two months on, effective and ineffective groups
  plasma OA/SA ratio: tends more or less to be reduced
[2]; [5]
  TIMP-1: hardly changed in value
  hyaluronic acid: hardly changed in value
  type IV collagen: hardly changed in value
[2]; liver biopsy at the end of one-year dosage
  average fibrosis, fibrosis staging of Brunt et al.: from stage 2 to stage 1
[2]; two months after start of administration, effective group vs ineffective group
  plasma OA/SA ratio: lower in value than in the ineffective group
Patients with NASH; G/G genotype group vs other genotype group
  degree of improvement in NAS score: higher in the group of patients with NASH having the G/G genotype
Patients with NASH; G/G genotype group
  NAS scores (Kleiner et al.): improved
Patients with NASH; genotype other than G/G
  NAS scores (Kleiner et al.): improved
